Assay: Dissolution Paddle Apparatus (U.S. Pharmacopoeia XX): rate of release of active ingredient from the capsule in water
Assay type: physicochemical
Method: For this purpose, the total amount of active ingredient released (cumulative values) is determined after fixed periods of time, in particular after 1, 2, 4, 6 and 8 hours, and this amount is expressed in % by weight of the amount of active ingredient contained in the capsule.

release of ibuprofen (PEG 300-stearate (HLB=9 to 10) with Eudragit S 100 added, 2 hours) [%] | release of ibuprofen (PEG 1500-stearate (HLB=17) with Eudragit S 100 added, 8 hours) [%] | release of ibuprofen (mixture with PEG 300-stearate, 1 hour) [%] | release of ibuprofen (mixture with PEG 1500-stearate, 0.25 hour) [%] | SMILES | release of diltiazem.HCl (absence of a polymer, 1.5 hours) [%] | release of diltiazem.HCl (ethylcellulose, HLB of 10.5, 6 hours) [%] | release of diltiazem.HCl (ethylcellulose, HLB of 11.5, 3 hours) [%]
– | – | – | – | COc1ccc(C2Sc3ccccc3N(CCN(C)C)C(=O)C2OC(C)=O)cc1.Cl (stereo not shown) [diltiazem.HCl, 3-acetoxy-5-(2-dimethylaminoethyl)-2,3-dihydro-2-(4-methoxyphenyl)-1,5-benzothiazepin-4(5H)-one hydrochloride] | 92.5 | 68.5 | 84.5
91.4 | 84.8 | 98.1 | 97 | CC(C)Cc1ccc(C(C)C(=O)O)cc1 (stereo not shown) [ibuprofen, 2-(4-isobutylphenyl)-propionic acid] | – | – | –

From patent US4795643A, “Medicament with a delayed release of active ingredient” (priority 1987, dated 1989)
